Measured values taken from PubChem BioAssay AID270 (DTP/NCI, 2004).
Several values for one entry are separate records, joined by “and”; a condition that tells them apart may be missing. Equal entries are not always repeated. Records with an inconclusive call do not appear.

Test system: BDF1 mice, s.c. Lewis lung carcinoma, T/C %
Experiment: NCI In Vivo Anticancer Drug Screen. Data for tumor model Lewis Lung Carcinoma (subcutaneous) in B6D2F1 (BDF1) mice
In short: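 The value reflects a ratio in which the treated cohort's survival time or tumour size is compared against mice receiving only vehicle.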

[1] = endpoint: median survival time, dose: 12.5 mg/kg/injection, schedule: Q01DX009 (ip), vehicle: Klucel (hydroxypropylcellulose) (HPC), higher = longer survival
[2] = endpoint: median survival time, dose: 25.0 mg/kg/injection, schedule: Q01DX009 (ip), vehicle: Klucel (hydroxypropylcellulose) (HPC), higher = longer survival
[3] = endpoint: median survival time, dose: 5.0 mg/kg/injection, schedule: Q01DX009 (ip), vehicle: Klucel (hydroxypropylcellulose) (HPC), higher = longer survival
[4] = endpoint: median survival time, dose: 10.0 mg/kg/injection, schedule: Q01DX009 (ip), vehicle: Klucel (hydroxypropylcellulose) (HPC), higher = longer survival

Structure (SMILES): O=CNCCO
- T/C (endpoint: mean tumor weight, dose: 133.0 mg/kg/injection, schedule: Q01DX011 (ip), vehicle: saline, higher = larger tumour): 69 % of control
- T/C (endpoint: mean tumor weight, dose: 200.0 mg/kg/injection, schedule: Q01DX011 (ip), vehicle: saline, higher = larger tumour): 79 % of control
- T/C (endpoint: mean tumor weight, dose: 300.0 mg/kg/injection, schedule: Q01DX011 (ip), vehicle: saline, higher = larger tumour): 48 % of control
- T/C (endpoint: mean tumor weight, dose: 450.0 mg/kg/injection, schedule: Q01DX011 (ip), vehicle: saline, higher = larger tumour): 54 % of control
- T/C (endpoint: mean tumor weight, dose: 750.0 mg/kg/injection, schedule: Q01DX011 (ip), vehicle: saline, higher = larger tumour): 81 % of control

Structure (SMILES): CCC(C)n1ncc2c(N(C)C)ncnc21 (configuration not stated)
- T/C (endpoint: mean tumor weight, dose: 32.5 mg/kg/injection, schedule: Q01DX011 (ip), vehicle: carboxymethylcellulose (CMC), higher = larger tumour): 76 % of control

Structure (SMILES): COc1ccc(OCC(O)CN2CCN(c3ccc(Cl)cc3)CC2)cc1 (configuration not stated)
- T/C [1]: 90 % of control
- T/C [2]: 87 % of control
- T/C (endpoint: median survival time, dose: 50.0 mg/kg/injection, schedule: Q01DX009 (ip), vehicle: Klucel (hydroxypropylcellulose) (HPC), higher = longer survival): 96 % of control
- T/C (endpoint: median survival time, dose: 100.0 mg/kg/injection, schedule: Q01DX009 (ip), vehicle: Klucel (hydroxypropylcellulose) (HPC), higher = longer survival): 90 % of control
- T/C (endpoint: median survival time, dose: 200.0 mg/kg/injection, schedule: Q01DX009 (ip), vehicle: Klucel (hydroxypropylcellulose) (HPC), higher = longer survival): 89 % of control

Structure (SMILES): COC(=O)[C@@]12OC[C@]34[C@H]([C@@H](O)[C@@H]1O)[C@@]1(C)CC(=O)C(O)=C(C)[C@@H]1C[C@H]3OC(=O)[C@H](OC(=O)/C=C(\C)C(C)C)[C@@H]24
- T/C (endpoint: median survival time, dose: 0.12 mg/kg/injection, schedule: Q01DX009 (ip), vehicle: other, higher = longer survival): 99 % of control
- T/C (endpoint: median survival time, dose: 0.25 mg/kg/injection, schedule: Q01DX009 (ip), vehicle: other, higher = longer survival): 91 % of control
- T/C (endpoint: median survival time, dose: 0.5 mg/kg/injection, schedule: Q01DX009 (ip), vehicle: other, higher = longer survival): 92 % of control
- T/C (endpoint: median survival time, dose: 1.0 mg/kg/injection, schedule: Q01DX009 (ip), vehicle: other, higher = longer survival): 91 % of control
- T/C (endpoint: median survival time, dose: 2.0 mg/kg/injection, schedule: Q01DX009 (ip), vehicle: other, higher = longer survival): 87 % of control

Structure (SMILES): O=NN(CCCl)C(=O)Nc1ncc([N+](=O)[O-])s1
- T/C (endpoint: median survival time, dose: 154.0 mg/kg/injection, schedule: Q01DX001 (ip), vehicle: other, higher = longer survival): 112 % of control

Structure (SMILES): O=NN(CCF)C(=O)NC1CCS(=O)(=O)CC1
- T/C (endpoint: median survival time, dose: 9.0 mg/kg/injection, schedule: Q01DX001 (ip), vehicle: other, higher = longer survival): 120 % of control
- T/C (endpoint: median survival time, dose: 14.0 mg/kg/injection, schedule: Q01DX001 (ip), vehicle: other, higher = longer survival): 109 % of control
- T/C (endpoint: median survival time, dose: 21.0 mg/kg/injection, schedule: Q01DX001 (ip), vehicle: other, higher = longer survival): 121 % of control
- T/C (endpoint: median survival time, dose: 32.0 mg/kg/injection, schedule: Q01DX001 (ip), vehicle: other, higher = longer survival): 107 % of control
- T/C (endpoint: median tumor weight (est.), dose: 11.0 mg/kg/injection, schedule: Q01DX001 (ip), vehicle: other, higher = larger tumour): 65 % of control
- T/C (endpoint: median tumor weight (est.), dose: 21.0 mg/kg/injection, schedule: Q01DX001 (ip), vehicle: other, higher = larger tumour): 65 % of control
- T/C (endpoint: median tumor weight (est.), dose: 32.0 mg/kg/injection, schedule: Q01DX001 (ip), vehicle: other, higher = larger tumour): 10 % of control

Structure (SMILES): C=C1C(=O)OC2CC1C(O)C/C(C)=C/CC/C(C)=C/C(O)CC2C (configuration not stated)
- T/C (endpoint: median survival time, dose: 1.56 mg/kg/injection, schedule: Q01DX009 (ip), vehicle: Klucel (hydroxypropylcellulose) (HPC), higher = longer survival): 90 % of control
- T/C (endpoint: median survival time, dose: 3.12 mg/kg/injection, schedule: Q01DX009 (ip), vehicle: Klucel (hydroxypropylcellulose) (HPC), higher = longer survival): 108 % of control
- T/C (endpoint: median survival time, dose: 6.25 mg/kg/injection, schedule: Q01DX009 (ip), vehicle: Klucel (hydroxypropylcellulose) (HPC), higher = longer survival): 93 % of control
- T/C [1]: 92 % of control
- T/C [2]: 99 % of control

Structure (SMILES): CC(CCc1cccc2ccccc12)(C(=O)O)C(=O)O
- T/C (endpoint: mean tumor weight, dose: 50.0 mg/kg/injection, schedule: Q01DX011 (ip), vehicle: acid diluted with saline, higher = larger tumour): 72 % of control
- T/C (endpoint: mean tumor weight, dose: 63.0 mg/kg/injection, schedule: Q01DX011 (ip), vehicle: carboxymethylcellulose (CMC), higher = larger tumour): 101 % of control
- T/C (endpoint: mean tumor weight, dose: 100.0 mg/kg/injection, schedule: Q01DX011 (ip), vehicle: acid diluted with saline, higher = larger tumour): 85 % of control
- T/C (endpoint: mean tumor weight, dose: 200.0 mg/kg/injection, schedule: Q01DX011 (ip), vehicle: acid diluted with saline, higher = larger tumour): 91 % of control
- T/C (endpoint: mean tumor weight, dose: 400.0 mg/kg/injection, schedule: Q01DX011 (ip), vehicle: acid diluted with saline, higher = larger tumour): 59 % of control

Structure (SMILES): CNC(=O)N(C)c1cc(N(C)C)nc(OC)n1
- T/C [3]: 98 % of control
- T/C [4]: 115 % of control

Structure (SMILES): ClCCN(CCCl)CC(Cl)COc1cccc2ccccc12 (configuration not stated)
- T/C (endpoint: median survival time, dose: 1.25 mg/kg/injection, schedule: Q01DX009 (ip), vehicle: Klucel (hydroxypropylcellulose) (HPC), higher = longer survival): 92 % of control and 103 % of control
- T/C (endpoint: median survival time, dose: 2.5 mg/kg/injection, schedule: Q01DX009 (ip), vehicle: Klucel (hydroxypropylcellulose) (HPC), higher = longer survival): 96 % of control and 103 % of control
- T/C [3]: 97 % of control and 101 % of control
- T/C [4]: 92 % of control and 110 % of control
- T/C (endpoint: median survival time, dose: 20.0 mg/kg/injection, schedule: Q01DX009 (ip), vehicle: Klucel (hydroxypropylcellulose) (HPC), higher = longer survival): 96 % of control and 106 % of control
- T/C (endpoint: median survival time, dose: 40.0 mg/kg/injection, schedule: Q01DX009 (ip), vehicle: Klucel (hydroxypropylcellulose) (HPC), higher = longer survival): 97 % of control
